*: point of attachment. Biotin = O=C1N[C@H]2[C@H](CS[C@H]2CCCCC(=O)*)N1
Test system: hair bulb keratinocytes
Assay: Detection of the hair bulb keratinocyte proliferation (test of Biol. Pharm. Bull., 28(3), 485-489, (2005))
Format: cell-based
Settings: relative to unsubstituted pentapeptide Gly-Pro-Ile-Gly-Ser
Description: In the test as described in Biol. Pharm.

## 5-[(3aS,4S,6aR)-2-oxo-hexahydro-1H-thieno[3,4-d]imidazol-4-yl]pentanoyl-Gly-Pro-Ile-Gly-Ser-OH (Biotin-GPIGS-OH; SMILES CC[C@H](C)[C@H](NC(=O)[C@@H]1CCCN1C(=O)CNC(=O)CCCC[C@@H]1SC[C@@H]2NC(=O)N[C@@H]21)C(=O)NCC(=O)N[C@@H](CO)C(=O)O) [No. 9]
  keratinocyte growth test result, value superior in comparison with the corresponding value for Gly-Pro-Ile-Gly-Ser: 53%

From patent publication US20130209551A1, “PENTAPEPTIDE DERIVATIVES FOR PROMOTING HAIR GROWTH” (priority 2010, published 2013)
